One may read the inhibition as the relative decrease from the control value, in per cent. A lower inhibition goes with a response near the control. For orientation: IC50 means the midpoint of a concentration-inhibition curve. High values mean weaker potency in that assay, low ones greater potency in that assay.

Common to all, as to assay type: cell-based
The target in test [1] is T1, NaV1.2 (Rattus norvegicus, UniProt P04775).
T1 construct: gene Scn2a; rat brain type IIA Na+ channel clone
As to the kind of experiment: whole-cell patch clamp in transfected HEK293T cells, […]. As to conditions: HEK-293T. Background: In patch-clamp work, channel activity is measured electrically.

Test [2] addresses T1, NaV1.2. Description: whole-cell patch clamp in transfected HEK293T and COS-7 cells, […].
Test [3] concerns the target T2, NaV1.4 (Rattus norvegicus, UniProt P15390, Y1586A).
T2 construct: gene Scn4a; rat NaV1.4 (NM013178)
Description: whole-cell patch clamp in transfected HEK293T cells, […]. As to conditions: HEK-293T.

Test [4] deals with T3, NaV1.4 (Rattus norvegicus, UniProt P15390).
T3 construct: gene Scn4a; rat NaV1.4 (NM013178) in pEGFP-N1
Description: whole-cell patch clamp in transfected HEK293T and COS-7 cells, […].

Test [5] has as its target T4, NaV1.2 (Rattus norvegicus, UniProt P04775, F1764A).
T4 construct: gene Scn2a; rat brain type IIA Na+ channel clone
As to the kind of experiment: whole-cell patch clamp in transfected HEK293T cells, […]. The note with it: HEK-293T.

For test [6], the target named is T5, NaV1.2 (Rattus norvegicus, UniProt P04775, Y1771A).
T5 construct: gene Scn2a; rat brain type IIA Na+ channel clone
Described as above. As to conditions: HEK-293T.

Test [7] addresses T1, NaV1.2. Description: whole-cell patch clamp in transfected HEK293T cells.
The target in test [8] is T6, NaV1.4 (Rattus norvegicus, UniProt P15390, F1579A).
T6 construct: gene Scn4a; rat NaV1.4 (NM013178)
Description: whole-cell patch clamp in transfected HEK293T cells, […]. The note with it: HEK-293T.

T1 sequence (P04775 whole entry): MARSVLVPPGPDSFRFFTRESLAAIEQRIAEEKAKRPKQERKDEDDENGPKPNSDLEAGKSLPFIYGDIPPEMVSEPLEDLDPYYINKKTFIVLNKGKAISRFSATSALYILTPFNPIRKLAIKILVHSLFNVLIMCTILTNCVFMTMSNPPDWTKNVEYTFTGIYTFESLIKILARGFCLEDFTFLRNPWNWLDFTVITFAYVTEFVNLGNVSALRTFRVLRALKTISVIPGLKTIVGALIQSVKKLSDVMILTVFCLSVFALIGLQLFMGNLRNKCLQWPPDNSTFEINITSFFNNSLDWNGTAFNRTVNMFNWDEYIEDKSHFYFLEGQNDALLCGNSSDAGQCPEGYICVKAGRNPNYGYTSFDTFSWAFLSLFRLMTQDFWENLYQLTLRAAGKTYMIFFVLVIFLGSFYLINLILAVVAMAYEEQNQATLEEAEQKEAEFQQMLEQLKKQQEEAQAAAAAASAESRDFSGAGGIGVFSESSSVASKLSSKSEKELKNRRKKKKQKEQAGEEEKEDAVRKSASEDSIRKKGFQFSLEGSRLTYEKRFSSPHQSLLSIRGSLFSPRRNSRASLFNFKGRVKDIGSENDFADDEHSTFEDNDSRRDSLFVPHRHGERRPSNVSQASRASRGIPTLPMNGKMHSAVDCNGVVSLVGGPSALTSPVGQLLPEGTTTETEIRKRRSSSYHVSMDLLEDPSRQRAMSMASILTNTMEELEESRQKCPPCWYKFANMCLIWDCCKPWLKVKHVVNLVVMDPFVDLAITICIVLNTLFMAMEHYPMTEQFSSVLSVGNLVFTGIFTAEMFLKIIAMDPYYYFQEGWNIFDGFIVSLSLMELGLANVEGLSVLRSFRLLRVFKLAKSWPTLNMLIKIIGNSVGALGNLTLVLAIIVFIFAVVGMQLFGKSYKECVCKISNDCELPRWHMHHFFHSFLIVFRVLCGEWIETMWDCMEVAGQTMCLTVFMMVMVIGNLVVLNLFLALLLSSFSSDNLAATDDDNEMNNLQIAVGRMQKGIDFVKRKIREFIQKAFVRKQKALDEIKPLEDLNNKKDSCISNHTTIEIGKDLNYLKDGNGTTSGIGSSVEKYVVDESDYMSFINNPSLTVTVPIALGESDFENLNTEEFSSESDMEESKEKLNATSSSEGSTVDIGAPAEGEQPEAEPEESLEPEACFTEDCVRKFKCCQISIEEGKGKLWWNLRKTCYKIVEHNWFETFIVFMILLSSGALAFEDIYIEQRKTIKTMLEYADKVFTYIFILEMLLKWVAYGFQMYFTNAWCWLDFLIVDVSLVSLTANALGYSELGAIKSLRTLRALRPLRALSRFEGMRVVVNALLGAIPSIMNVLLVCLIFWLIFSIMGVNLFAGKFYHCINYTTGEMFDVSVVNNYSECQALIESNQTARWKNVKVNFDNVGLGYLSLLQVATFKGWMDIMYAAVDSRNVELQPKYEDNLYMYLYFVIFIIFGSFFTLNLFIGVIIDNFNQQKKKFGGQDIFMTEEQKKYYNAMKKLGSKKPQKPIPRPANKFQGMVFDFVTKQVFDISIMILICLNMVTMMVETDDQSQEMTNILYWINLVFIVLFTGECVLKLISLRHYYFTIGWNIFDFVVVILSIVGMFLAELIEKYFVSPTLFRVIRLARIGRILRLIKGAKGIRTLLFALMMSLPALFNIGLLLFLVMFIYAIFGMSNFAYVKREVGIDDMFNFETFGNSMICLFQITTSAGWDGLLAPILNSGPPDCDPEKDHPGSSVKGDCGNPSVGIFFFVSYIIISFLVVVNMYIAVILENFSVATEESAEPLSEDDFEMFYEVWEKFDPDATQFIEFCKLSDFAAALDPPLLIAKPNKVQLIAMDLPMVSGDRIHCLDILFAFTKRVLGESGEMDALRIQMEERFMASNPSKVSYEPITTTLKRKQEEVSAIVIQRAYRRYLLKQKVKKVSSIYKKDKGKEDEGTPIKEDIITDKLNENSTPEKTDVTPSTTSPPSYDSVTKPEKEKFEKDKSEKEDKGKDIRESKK
T2 sequence (P15390 whole entry Y1586A): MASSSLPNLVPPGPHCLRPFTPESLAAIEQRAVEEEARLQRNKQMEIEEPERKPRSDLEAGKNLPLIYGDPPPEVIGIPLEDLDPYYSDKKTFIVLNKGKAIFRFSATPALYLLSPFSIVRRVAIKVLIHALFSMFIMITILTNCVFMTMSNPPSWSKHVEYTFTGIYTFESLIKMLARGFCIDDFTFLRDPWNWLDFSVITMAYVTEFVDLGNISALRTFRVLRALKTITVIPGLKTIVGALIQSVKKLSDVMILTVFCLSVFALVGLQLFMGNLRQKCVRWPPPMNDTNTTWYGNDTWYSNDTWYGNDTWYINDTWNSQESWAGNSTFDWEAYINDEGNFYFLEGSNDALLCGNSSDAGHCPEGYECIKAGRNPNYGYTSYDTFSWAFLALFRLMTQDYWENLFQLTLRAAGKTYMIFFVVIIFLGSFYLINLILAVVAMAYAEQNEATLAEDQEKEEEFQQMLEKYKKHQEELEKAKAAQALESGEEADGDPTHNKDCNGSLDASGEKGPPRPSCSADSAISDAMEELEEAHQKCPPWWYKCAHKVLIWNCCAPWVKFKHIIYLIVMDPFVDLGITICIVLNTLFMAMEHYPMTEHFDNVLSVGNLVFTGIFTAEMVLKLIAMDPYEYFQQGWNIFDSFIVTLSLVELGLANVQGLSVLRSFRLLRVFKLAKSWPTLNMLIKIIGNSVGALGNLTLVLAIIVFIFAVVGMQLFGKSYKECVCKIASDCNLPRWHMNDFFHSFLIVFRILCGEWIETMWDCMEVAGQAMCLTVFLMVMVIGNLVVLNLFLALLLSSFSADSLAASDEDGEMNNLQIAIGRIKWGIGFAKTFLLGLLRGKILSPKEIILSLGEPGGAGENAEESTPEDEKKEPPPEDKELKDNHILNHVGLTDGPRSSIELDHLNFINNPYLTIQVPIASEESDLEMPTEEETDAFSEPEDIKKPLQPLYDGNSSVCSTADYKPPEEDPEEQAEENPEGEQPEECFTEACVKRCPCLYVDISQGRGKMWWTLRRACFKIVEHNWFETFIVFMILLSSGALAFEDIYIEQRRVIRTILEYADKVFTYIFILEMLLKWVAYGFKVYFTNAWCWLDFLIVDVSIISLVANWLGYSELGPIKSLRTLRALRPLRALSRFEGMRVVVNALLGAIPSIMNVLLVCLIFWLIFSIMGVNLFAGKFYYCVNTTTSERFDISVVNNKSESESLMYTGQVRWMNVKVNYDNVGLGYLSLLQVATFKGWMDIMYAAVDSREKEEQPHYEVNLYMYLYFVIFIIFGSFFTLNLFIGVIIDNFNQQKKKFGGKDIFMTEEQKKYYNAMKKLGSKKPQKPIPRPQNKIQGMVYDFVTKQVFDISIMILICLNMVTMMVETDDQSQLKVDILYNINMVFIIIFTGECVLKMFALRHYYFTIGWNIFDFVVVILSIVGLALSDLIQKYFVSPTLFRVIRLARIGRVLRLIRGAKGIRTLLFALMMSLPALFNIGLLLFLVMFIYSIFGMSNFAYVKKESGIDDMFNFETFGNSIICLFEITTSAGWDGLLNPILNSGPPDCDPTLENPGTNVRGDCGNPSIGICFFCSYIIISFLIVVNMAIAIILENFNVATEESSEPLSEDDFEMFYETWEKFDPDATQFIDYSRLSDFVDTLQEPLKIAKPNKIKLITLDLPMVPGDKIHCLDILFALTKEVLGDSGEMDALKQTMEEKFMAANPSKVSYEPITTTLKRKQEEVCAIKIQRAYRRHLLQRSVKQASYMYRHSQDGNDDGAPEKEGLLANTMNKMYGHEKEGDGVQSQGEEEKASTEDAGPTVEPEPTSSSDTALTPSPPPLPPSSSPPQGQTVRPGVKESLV
T5 sequence (P04775 whole entry Y1771A): as the sequence (P04775 whole entry) above, with Y1771A counted along it
T4 sequence (P04775 whole entry F1764A): as the sequence (P04775 whole entry) above, with F1764A counted along it
T3 sequence (P15390 whole entry): as the sequence (P15390 whole entry Y1586A) above, with A1586Y counted along it
T6 sequence (P15390 whole entry F1579A): as the sequence (P15390 whole entry Y1586A) above, with F1579A, A1586Y counted along it

At NaV1.2 [1], `Cc1ccccc1NC(=N)Nc1ccccc1C` [1,3-di-o-tolyl-guanidine] displayed an inhibition at 100 µM of 69 ± 2.5%.

On to `COc1ccc2c(c1)[C@]13CCCC[C@@H]1[C@H](C2)N(C)CC3` [Dextromethorphan], for which, at NaV1.2 [2], the inhibition at 100 µM is 65.8 ± 2%.

As for `C=CCN1CC[C@]2(C)c3cc(O)ccc3C[C@H]1[C@H]2C` [(+)-SKF 10047], the inhibition at 100 µM at NaV1.4 [3] turned out to be 49.3 ± 0.5%; against NaV1.4 [4], 51.5 ± 2.5%; against NaV1.2 [5], 25.9 ± 1.6%; against NaV1.2 [6] it was 45.2 ± 1.3%; against NaV1.4 [8], 23 ± 1.7%. In addition, the half-inhibitory concentration (IC50) against NaV1.2 [7] is 140 µM.

These data come from publication PMC3489664, “Sigma-1 Receptor Agonists Directly Inhibit NaV1.2/1.4 Channels” (PLoS ONE, 2012).
